Test results published in patent publication US20250195521A1 (Revolution Medicines, Inc., priority 2020, published 2025).

system: Capan-1 cells (K-Ras G12V); test: CellTiter-Glo cell viability, Capan-1; assay type: cell-based, human; conditions: Homo sapiens, CAPAN-1, 120 h, K-Ras G12V, 5-day treatment; read-out: Capan-1 Cell Viability IC50
Description: Note—The following protocol describes a procedure for monitoring cell viability of K-Ras mutant cancer cell lines in response to a compound of the invention. Other RAS isoforms may be employed, though the number of cells to be seeded will vary based on cell line used.
Test compounds (132.5 nl) were directly dispensed into the assay plates containing cells. […] On day 5, assay plates and their contents were equilibrated to room temperature for approximately 30 minutes. […] Luminescence was measured using the PerkinElmer Enspire. Data were normalized by the following: (Sample signal/Avg. DMSO)*100. The data were fit using a four-parameter logistic fit.

| Structure (SMILES) | IC50 |
| --- | --- |
| CCn1c(-c2cccnc2[C@H](C)OC)c2c3cc(ccc31)-c1cc(O)cc(c1)C[C@H](NC(=O)[C@H](C(C)C)N(C)C(=O)[C@@H]1C[C@H]1C)C(=O)N1CCC[C@H](N1)C(=O)OCC(C)(C)C2 [Compound A147] | 0.1 to 1 µM |

target: KRAS G12D (Homo sapiens (Human), UniProt P01116+P62937, G12D); test: Ras-Raf disruption/FRET/MOA assay (BRAF RBD, Cyclophilin A); assay type: biochemical; conditions: read-out: KRAS G12D FRET IC50
Sequence (P01116 other isoform, or with tags, fused parts or gaps G12D): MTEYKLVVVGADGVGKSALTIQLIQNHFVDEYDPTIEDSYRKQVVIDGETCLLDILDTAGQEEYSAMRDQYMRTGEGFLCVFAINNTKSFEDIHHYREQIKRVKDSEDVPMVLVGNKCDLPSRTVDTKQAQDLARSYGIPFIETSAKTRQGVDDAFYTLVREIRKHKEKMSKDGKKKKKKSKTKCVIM
Sequence (P62937 whole entry): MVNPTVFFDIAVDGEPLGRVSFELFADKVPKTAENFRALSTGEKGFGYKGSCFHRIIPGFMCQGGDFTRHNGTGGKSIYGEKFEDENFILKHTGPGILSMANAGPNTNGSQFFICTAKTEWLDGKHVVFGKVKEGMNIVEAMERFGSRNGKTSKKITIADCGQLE
Description: (§1) Compound is present in plate wells as a 10-point 3-fold dilution series starting at a final concentration of 30 μM. After incubation at 25° C. for 3 hours, a mixture of Anti-His Eu—W1024 and anti-GST allophycocyanin is then added to assay sample wells at final concentrations of 10 nM and 50 nM, respectively, and the reaction incubated for an additional 1.5 hours. […] Compounds that facilitate disruption of a Ras: RAF complex are identified as those eliciting a decrease in the TR-FRET ratio relative to DMSO control wells.
(§2) Disruption of B-Raf Ras-Binding Domain (BRAF^RBD) Interaction with K-Ras by Compounds of the Invention (Also Called a FRET Assay or an MOA Assay)
(§3) Note—The following protocol describes a procedure for monitoring disruption of K-Ras G12C (GMP-PNP) binding to BRAF^RBD by a compound of the invention. This protocol may also be executed substituting other Ras proteins or nucleotides.
(§4) The purpose of this biochemical assay was to measure the ability of test compounds to facilitate ternary complex formation between a nucleotide-loaded K-Ras isoform and Cyclophilin A; the resulting ternary complex disrupts binding to a BRAF^RBD construct, inhibiting K-Ras signaling through a RAF effector. Data is reported as IC50 values.
(§5) In assay buffer containing 25 mM HEPES pH 7.3, 0.002% Tween20, 0.1% BSA, 100 mM NaCl and 5 mM MgCl2, tagless Cyclophilin A, His6-K-Ras-GMPPNP, and GST-BRAF^RBD were combined in a 384-well assay plate at final concentrations of 25 μM, 12.5 nM and 50 nM, respectively. Compound was present in plate wells as a 10-point 3-fold dilution series starting at a final concentration of 30 μM. After incubation at 25° C. for 3 hours, a mixture of Anti-His Eu—W1024 and anti-GST allophycocyanin was then added to assay sample wells at final concentrations of 10 nM and 50 nM, respectively, and the reaction incubated for an additional 1.5 hours. […] Compounds that facilitate disruption of a K-Ras: RAF complex were identified as those eliciting a decrease in the TR-FRET ratio relative to DMSO control wells.

| Structure (SMILES) | IC50 |
| --- | --- |
| CCn1c(-c2cccnc2[C@H](C)OC)c2c3cc(ccc31)-c1cc(O)cc(c1)C[C@H](NS(=O)(=O)CC1CCC3(CNC3)C1)C(=O)N1CCC[C@H](N1)C(=O)OCC(C)(C)C2 (stereo partly shown) [Compound A188] | > 10 µM |

target: KRAS G12V (Homo sapiens (Human), UniProt P01116+P62937, G12V); test: as above; assay type: biochemical; conditions: read-out: KRAS G12V FRET IC50
Sequence (P01116 other isoform, or with tags, fused parts or gaps G12V): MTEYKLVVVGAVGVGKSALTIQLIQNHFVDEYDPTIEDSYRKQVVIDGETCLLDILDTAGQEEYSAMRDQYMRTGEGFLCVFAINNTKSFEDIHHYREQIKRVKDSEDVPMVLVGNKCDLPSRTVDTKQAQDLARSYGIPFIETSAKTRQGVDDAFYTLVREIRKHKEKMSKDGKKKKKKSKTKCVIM
Sequence (P62937 whole entry): as the sequence (P62937 whole entry) above
Description: as §1, §2, §3, §4, §5

| Structure (SMILES) | IC50 |
| --- | --- |
| CCn1c(-c2cccnc2[C@H](C)OC)c2c3cc(ccc31)-c1cc(O)cc(c1)C[C@H](NS(=O)(=O)CC1CCC3(CNC3)C1)C(=O)N1CCC[C@H](N1)C(=O)OCC(C)(C)C2 (stereo partly shown) [Compound A188] | > 10 µM |

target: KRAS G13C (Homo sapiens (Human), UniProt P01116+P62937, G13C); test: as above; assay type: biochemical; conditions: read-out: KRAS G13C FRET IC50
Sequence (P01116 other isoform, or with tags, fused parts or gaps G13C): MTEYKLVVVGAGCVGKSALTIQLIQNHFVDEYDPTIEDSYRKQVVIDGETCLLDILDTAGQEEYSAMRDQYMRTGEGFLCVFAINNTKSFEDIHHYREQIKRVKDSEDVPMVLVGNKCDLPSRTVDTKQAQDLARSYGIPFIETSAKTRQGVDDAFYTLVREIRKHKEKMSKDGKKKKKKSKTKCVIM
Sequence (P62937 whole entry): as the sequence (P62937 whole entry) above
Description: as §1, §2, §3, §4, §5

| Structure (SMILES) | IC50 |
| --- | --- |
| CCn1c(-c2cccnc2[C@H](C)OC)c2c3cc(ccc31)-c1cc(O)cc(c1)C[C@H](NS(=O)(=O)CC1CCC3(CNC3)C1)C(=O)N1CCC[C@H](N1)C(=O)OCC(C)(C)C2 (stereo partly shown) [Compound A188] | 1 to 10 µM |

system: K-Ras G12C (NCI-H358 cells); test: Potency assay: pERK in NCI-H358 cells; assay type: cell-based, human; conditions: Homo sapiens, NCI-H358, 4 h, read-out: pERK EC50 (H358 KRAS G12C)
Description: The purpose of this assay is to measure the ability of test compounds to inhibit K-Ras in cells. […] This procedure measures a decrease in cellular pERK in response to test compounds. The procedure described below in NCI-H358 cells is applicable to K-Ras G12C.
Note: This protocol may be executed substituting other cell lines to characterize inhibitors of other RAS variants, including, for example, AsPC-1 (K-Ras G12D), Capan-1 (K-Ras G12V), or NCI-H1355 (K-Ras G13C).
NCI-H358 cells were grown and maintained using media and procedures recommended by the ATCC. On the day prior to compound addition, cells were plated in 384-well cell culture plates (40 μl/well) and grown overnight in a 37° C., 5% CO2 incubator. Test compounds were prepared in 10, 3-fold dilutions in DMSO, with a high concentration of 10 mM. On the day of assay, 40 nL of test compound was added to each well of cell culture plate using an Echo550 liquid handler (LabCyte®). Concentrations of test compound were tested in duplicate. After compound addition, cells were incubated 4 hours at 37° C., 5% CO2. Following incubation, culture medium was removed and cells were washed once with phosphate buffered saline.
In some experiments, cellular pERK level was determined using the AlphaLISA SureFire Ultra p-ERK1/2 Assay Kit (PerkinElmer). Cells were lysed in 25 μL lysis buffer, with shaking at 600 RPM at room temperature. […] After a 2-hour incubation in the dark, 5 μL donor mix was added, plate was sealed, and incubated 2 hours at room temperature. Signal was read on an Envision plate reader (PerkinElmer) using standard AlphaLISA settings. Analysis of raw data was carried out in Excel (Microsoft) and Prism (GraphPad). Signal was plotted vs. the decadal logarithm of compound concentration, and IC50 was determined by fitting a 4-parameter sigmoidal concentration response model.
In other experiments, cellular pERK was determined by In-Cell Western. […] Fixed cells were washed 4 times for 5 minutes with TBS containing 0.1% Triton X-100 (TBST) and then blocked with 100 μL Odyssey blocking buffer (LI-COR) for 60 minutes at room temperature. Primary antibody (PERK, CST-4370, Cell Signaling Technology) was diluted 1:200 in blocking buffer, and 50 μL was added to each well and incubated overnight at 4° C. Cells were washed 4 times for 5 minutes with TBST. Secondary antibody (IR-800CW rabbit, LI-COR, diluted 1:800) and DNA stain DRAQ5 (LI-COR, diluted 1:2000) were added and incubated 1-2 hours at room temperature. Cells were washed 4 times for 5 minutes with TBST. Plates were scanned on a Li—COR Odyssey CLx Imager. Analysis of raw data was carried out in Excel (Microsoft) and Prism (GraphPad). Signal was plotted vs. the decadal logarithm of compound concentration, and IC50 was determined by fitting a 4-parameter sigmoidal concentration response model.

| Structure (SMILES) | EC50 |
| --- | --- |
| CCn1c(-c2cccnc2[C@H](C)OC)c2c3cc(ccc31)-c1csc(n1)C[C@H](NC(=O)[C@H](C(C)C)N(C)C(=O)N1CC(S(=O)(=O)NC)C1)C(=O)N1CCC[C@H](N1)C(=O)OCC(C)(C)C2 [Compound A549] | < 5 µM |

same assay, conditions: Homo sapiens; NCI-H358 cells, 4 hours; read-out: pERK EC50 (H358 KRAS G12C)

| Structure (SMILES) | EC50 |
| --- | --- |
| CCn1c(-c2cccnc2[C@H](C)OC)c2c3cc(ccc31)-c1csc(n1)C[C@H](NC(=O)[C@H](C(C)C)N(C)C(=O)N1CCCC13CCOCC3)C(=O)N1CCC[C@H](N1)C(=O)OCC(C)(C)C2 [Compound A520] | < 5 µM |
| CCn1c(-c2cccnc2[C@H](C)OC)c2c3cc(ccc31)-c1csc(n1)C[C@H](NC(=O)[C@H](C(C)C)N(C)C(=O)N1CC3(CCCO3)C1)C(=O)N1CCC[C@H](N1)C(=O)OCC(C)(C)C2 [Compound A522] | < 5 µM |
| CCn1c(-c2cc(N3CCN(C)CC3)cnc2[C@H](C)OC)c2c3cc(ccc31)-c1csc(n1)C[C@H](NC(=O)[C@H](C1CCCC1)N(C)C(=O)N(C)C)C(=O)N1CCC[C@H](N1)C(=O)OCC(C)(C)C2 [Compound A526] | < 5 µM |
| CCn1c(-c2cccnc2[C@H](C)OC)c2c3cc(ccc31)-c1csc(n1)C[C@H](NC(=O)[C@H](C(C)C)N(C)C(=O)N1CCCC13COC3)C(=O)N1CCC[C@H](N1)C(=O)OCC(C)(C)C2 [Compound A528] | < 5 µM |
| CCn1c(-c2cccnc2[C@H](C)OC)c2c3cc(ccc31)-c1csc(n1)C[C@H](NC(=O)[C@H](C(C)C)N(C)C(=O)N1CC3(CC(N(C)CCOC)C3)C1)C(=O)N1CCC[C@H](N1)C(=O)OCC(C)(C)C2 [Compound A532] | < 5 µM |
| CCn1c(-c2cccnc2[C@H](C)OC)c2c3cc(ccc31)-c1csc(n1)C[C@H](NC(=O)[C@H](C(C)C)N(C)C(=O)N1CC([C@H](C)NC)C1)C(=O)N1CCC[C@H](N1)C(=O)OCC(C)(C)C2 [Compound A535] | < 5 µM |
| CCn1c(-c2cccnc2[C@H](C)OC)c2c3cc(ccc31)-c1cc(O)cc(c1)C[C@H](NC(=O)[C@H](C(C)C)N(C)C(=O)[C@@H]1OCC[C@@H]1c1cccnc1)C(=O)N1CCC[C@H](N1)C(=O)OCC(C)(C)C2 [Compound A546] | < 5 µM |
| CCn1c(-c2cc(N3CCN(C)CC3)cnc2[C@H](C)OC)c2c3cc(ccc31)-c1csc(n1)C[C@H](NC(=O)[C@H](C(C)C)N(C)C(=O)N1CCOCC1)C(=O)N1CCC[C@H](N1)C(=O)OCC(C)(C)C2 [Compound A555] | < 5 µM |
| CCn1c(-c2cccnc2[C@H](C)OC)c2c3cc(ccc31)-c1csc(n1)C[C@H](NC(=O)[C@H](C(C)C)N(C)C(=O)N1CCC3(CCN(C)CC3)C1)C(=O)N1CCC[C@H](N1)C(=O)OCC(C)(C)C2 [Compound A565] | < 5 µM |
| CCn1c(-c2cccnc2[C@H](C)OC)c2c3cc(ccc31)-c1csc(n1)C[C@H](NC(=O)[C@H](C(C)C)N(C)C(=O)N1C[C@H](N)[C@@H](F)C1)C(=O)N1CCC[C@H](N1)C(=O)OCC(C)(C)C2 [Compound A567] | < 5 µM |
| CCn1c(-c2cccnc2[C@H](C)OC)c2c3cc(ccc31)-c1csc(n1)C[C@H](NC(=O)[C@H](C(C)C)N(C)C(=O)N1CCOC[C@@H]1CN(C)C)C(=O)N1CCC[C@H](N1)C(=O)OCC(C)(C)C2 [Compound A572] | < 5 µM |
| CCn1c(-c2cccnc2[C@H](C)OC)c2c3cc(ccc31)-c1csc(n1)C[C@H](NC(=O)[C@H](C(C)C)N(C)C(=O)N1CCC[C@H](CN(C)C)C1)C(=O)N1CCC[C@H](N1)C(=O)OCC(C)(C)C2 [Compound A573] | < 5 µM |
| CCn1c(-c2cccnc2[C@H](C)OC)c2c3cc(ccc31)-c1csc(n1)C[C@H](NC(=O)[C@H](CC1CC1)N(C)C(=O)N1CC(OC)C1)C(=O)N1CCC[C@H](N1)C(=O)OCC(C)(C)C2 [Compound A578] | < 5 µM |
| CCn1c(-c2cccnc2[C@H](C)OC)c2c3cc(ccc31)-c1csc(n1)C[C@H](NC(=O)[C@H](C(C)C)N(C)C(=O)N1CC(OC)C1)C(=O)N1CC[C@H](C)[C@H](N1)C(=O)OCC(C)(C)C2 [Compound A579, N-((2S)-1-(((6^3S,6^4S,4S,Z)-1^1-ethyl-1^2-(2-((S)-1-methoxyethyl)pyridin-3-yl)-6^4, 10, 10-trimethyl-5,7-dioxo-6^1,6^2,6^3,6^4,6^5,6^6-hexahydro-1^1H-8-oxa-2 (4,2)-thiazola-1 (5,3)-indola-6 (1,3)-pyridazinacycloundecaphane-4-yl)amino)-3-methyl-1-oxobutan-2-yl)-3-methoxy-N-methylazetidine-1-carboxamide] | < 5 µM |
| CCn1c(-c2cccnc2[C@H](C)OC)c2c3cc(ccc31)-c1csc(n1)C[C@H](NC(=O)[C@H](C(C)C)N(C)C(=O)N1C[C@H](OC)[C@@H](N)C1)C(=O)N1CCC[C@H](N1)C(=O)OCC(C)(C)C2 [Compound A580] | < 5 µM |
| CCn1c(-c2cccnc2[C@H](C)OC)c2c3cc(ccc31)-c1csc(n1)C[C@H](NC(=O)[C@H](C(C)C)N(C)C(=O)N1CCOC[C@@H]1c1ccccc1)C(=O)N1CCC[C@H](N1)C(=O)OCC(C)(C)C2 [Compound A604] | < 5 µM |
| CCn1c(-c2cccnc2[C@H](C)OC)c2c3cc(ccc31)-c1csc(n1)C[C@H](NC(=O)[C@H](C(C)C)N(C)C(=O)N1[C@H](C)CN(C)C[C@H]1C)C(=O)N1CCC[C@H](N1)C(=O)OCC(C)(C)C2 [Compound A610] | < 5 µM |
